This passage reports Activity results from ChEMBL document CHEMBL1140845, “Synthesis of deoxygenated alpha(1-->5)-linked arabinofuranose disaccharides as substrates and inhibitors of arabinosyltransferases of Mycobacterium tuberculosis” (Bioorg Med Chem, 2009).

This test relates to Mycobacterium tuberculosis. Briefly: Antimycobacterial activity against multidrug resistant Mycobacterium tuberculosis H37Ra at 12.8 to 128 ug/mL. In kind it is functional, organism-based.

The structures appear in SMILES notation. The source made the active and inactive calls. No cut-off for these calls is given here.

Consider `CCCCCCCCO[C@H]1O[C@H](CO[C@H]2O[C@H](CO)[C@@H](O)[C@@H]2O)C[C@@H]1O`, for which the result was Active. Regarding `CCCCCCCCO[C@H]1O[C@H](CO[C@H]2O[C@H](CO)[C@@H](O)[C@@H]2O)[C@@H](O)[C@@H]1F`, the outcome was Active.

As for `CCCCCCCCO[C@@H]1C[C@H](O)[C@@H](CO[C@H]2O[C@H](CO)[C@@H](O)[C@@H]2O)O1`, the outcome was Active.
